Assay: Chemical stability of daptomycin formulations on storage (daptomycin peak purity, anhydrodaptomycin impurity)
Format: physicochemical
Conditions: with only propylene glycol, 2-8° C.
Procedure: For purposes of the present invention, “stable” or “substantially stable” with respect to liquid daptomycin compositions shall be understood to mean compositions having less than about 5% anhydrodaptomycin impurity compared to a reference standard and/or having a peak purity of at least about 95% after 1 month at room temperature or 12 months at refrigerated temperatures of from about 2 to about 8° C. Impurity and peak purity calculated based on integration of major impurity anhydrodaptomycin and daptomycin peaks only and minor impurities not accounted for calculations.
Note: Impurities presented here represent increase compared to standard injections. The peak at RRT of about 1.12 (Anhydrodaptomycin) is major impurity that increases over the time. The same impurity is also present in standard injections to the extent of 0.6 to 0.8%. Here onwards, impurity means it is Anhydrodaptomycin and peak purity refers to area percentage of Daptomycin, when only two peaks are integrated, Daptomycin and Anhydrodaptomycin.
Note: Impurities presented here represent increase compared to standard injections. The peak at RRT 1.12 (Anhydrodaptomycin) is major impurity that increases over the time. The same impurity is also present in standard injections to the extent of 0.6 to 0.8%.

In the case of `CCCCCCCCCC(=O)N[C@@H](Cc1c[nH]c2ccccc12)C(=O)N[C@H](CC(N)=O)C(=O)N[C@@H](CC(=O)O)C(=O)N[C@@H]1C(=O)NCC(=O)N[C@@H](CCCN)C(=O)N[C@@H](CC(=O)O)C(=O)N[C@H](C)C(=O)N[C@@H](CC(=O)O)C(=O)NCC(=O)N[C@H](CO)C(=O)N[C@@H]([C@H](C)CC(=O)O)C(=O)N[C@@H](CC(=O)c2ccccc2N)C(=O)O[C@@H]1C` [Daptomycin], the “stable up to (time)” value was “up to 1 month”.
